# Laboratory results: patent US7648983B2, “BACE inhibitors” (Eli Lilly and Company, priority 2008, dated 2010)
# Where a name gives a salt, the structure may show the parent alone. Read-outs that look alike come from different tables or passages of the source.
# Assays:
# [1] = molecular target: T1, beta-secretase (Mus musculus, UniProt P56818); assay: In vivo inhibition of beta-secretase in PDAPP mice; settings: 3 hours
# T1 construct: from tissue; host or cells: living PDAPP mice; brain cortex, plasma and CSF analysed
# T1 sequence (P56818 46-501): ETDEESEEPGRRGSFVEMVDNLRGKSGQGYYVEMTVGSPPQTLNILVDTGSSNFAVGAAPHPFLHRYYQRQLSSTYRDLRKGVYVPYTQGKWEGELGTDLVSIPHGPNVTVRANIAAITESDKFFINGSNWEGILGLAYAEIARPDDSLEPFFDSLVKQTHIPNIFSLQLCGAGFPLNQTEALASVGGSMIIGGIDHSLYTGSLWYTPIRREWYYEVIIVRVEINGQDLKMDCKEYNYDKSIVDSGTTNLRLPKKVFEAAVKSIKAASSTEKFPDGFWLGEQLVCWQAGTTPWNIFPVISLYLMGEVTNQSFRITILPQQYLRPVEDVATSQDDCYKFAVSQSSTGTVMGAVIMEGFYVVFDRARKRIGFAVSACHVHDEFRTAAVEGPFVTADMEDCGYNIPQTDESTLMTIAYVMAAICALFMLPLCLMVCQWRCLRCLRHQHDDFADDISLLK
# Source text: Several animal models, including mouse, guinea pig, dog, and monkey, may be used to screen for inhibition of beta-secretase activity in vivo following compound treatment. Animals used in this invention can be wild type, transgenic, or gene knockout animals. For example, the PDAPP mouse model, prepared as described in Games et al., Nature 373, 523-527 (1995), and other non-transgenic or gene knockout animals are useful to analyze in vivo inhibition of Abeta and sAPPbeta production in the presence of inhibitory compounds. Generally, 2 to 12 month old PDAPP mice, gene knockout mice or non-transgenic animals are administered compound formulated in vehicles, such as corn oil, cyclodextran, phosphate buffers, PHARMASOLVE®, or other suitable vehicles. One to twenty-four hours following the administration of compound, animals are sacrificed, and brains as well as cerebrospinal fluid and plasma are removed for analysis of Abetas, C99 and sAPP fragments. (See Dovey, et al., Journal of Neurochemistry, 76, 173-181 (2001); and Johnson-Wood, et al., Proc. Natl. Acad. Sci. USA, 94, 1550-1555 (1997)).
# For standard efficacy studies, animals are dosed with various concentrations of compound and compared to a vehicle-treated control group dosed at the same time. For some time course studies, brain tissue, plasma or cerebrospinal fluid is obtained from selected animals, beginning at time 0 to establish a baseline. Compound is administered to other groups and sacrificed at various times after dosing. Brain tissue, plasma or cerebrospinal fluid is obtained from selected animals and analyzed for the presence of APP cleavage products, including Abeta peptides, sAPPbeta and other APP fragments, for example, by specific sandwich ELISA assays. At the end of the test period, animals are sacrificed and brain tissues, plasma or cerebrospinal fluid are analyzed for the presence of Abeta peptides, C99 and sAPPbeta. Brain tissues of APP transgenic animals are also analyzed for the amount of beta-amyloid plaques following compound treatment.
# For example, 3 hours after administration of 100 mg/kg sub-cutaneous dose of the compound of example 19 to young male PDAPP mice, Abeta 1-x peptide, C99 and sAPPb levels are reduced approximately 30%, 50% and 20% in brain cortex, respectively, compared to vehicle-treated mice.
# [2] = molecular target: T2, beta-secretase (BACE) in HEK293/APP751sw cells (Homo sapiens, UniProt P56817); assay: HEK293Swe whole cell assay (Abeta ELISA); format: cell-based
# T2 construct: endogenous in cells; host or cells: HEK293p (ATCC CRL-1573) stably expressing human APP751 Swedish
# T2 sequence (P56817 46-501): as the sequence (P56818 46-501) above, with S6P, I162V, I165L, T180S, A182V, V340I, A393L, H443Q counted along it
# Description: (§1) For in vitro enzymatic and cellular assays, test compounds are prepared in DMSO to make up a 10 mM stock solution. The stock solution is serially diluted in DMSO to obtain a ten-point dilution curve with final compound concentrations ranging from […] to 1 pM in a 96-well round-bottom plate before conducting the in vitro enzymatic and whole cell assays.
# The routine whole cell assay for the measurement of inhibition of beta-secretase activity utilizes the human embryonic kidney cell line HEK293p (ATCC Accession No. CRL-1573) stably expressing a human APP751 cDNA containing the naturally occurring double mutation Lys651Met652 to […], commonly called the Swedish mutation (noted HEK293/APP751sw) and shown to overproduce Abeta (Citron, et al., Nature, 360, 672-674 (1992)). In vitro Aβ reduction assays have been described in the literature (See Dovey, et al., Journal of Neurochemistry, 76, 173-181 (2001); Seubert, et al., Nature, 361, 260 (1993); and Johnson-Wood, et al., Proc. Natl. Acad. Sci. USA, 94, 1550-1555 (1997)).
# (§2) Cells (HEK293/APP751sw at 3.5×10^4 cells/well, containing 200 μL culture media, DMEM containing 10% FBS) are incubated at 37° C. for 4 to 24 h in the presence/absence of inhibitors (diluted in DMSO) at the desired concentration. At the end of the incubation, conditioned media are analyzed for evidence of beta-secretase activity, for example, by analysis of Abeta peptides. Total Abeta peptides (Abeta 1-x) are measured by a sandwich ELISA, using monoclonal 266 as a capture antibody and biotinylated 3D6 as reporting antibody. Alternatively, Abeta 1-40 and Abeta 1-42 peptides are measured by a sandwich ELISA, using monoclonal 2G3 as a capture antibody for Abeta 1-40, and monoclonal 21F12 as a capture antibody for Abeta 1-42. Both Abeta 1-40 and Abeta 1-42 ELISAs use biotinylated 3D6 as the reporting antibody. The concentration of Abeta released in the conditioned media following the compound treatment corresponds to the activity of BACE under such conditions. The 10-point inhibition curve is plotted and fitted with the four-parameter logistic equation to obtain the EC50 and IC50 values for the Abeta-lowering effect.
# [3] = molecular target: T3, human BACE(1-460):Fc (Homo sapiens, UniProt P56817); assay: BACE FRET assay; format: biochemical
# T3 construct: made in house; host or cells: HEK293 cells (transient, pJB02 vector), purified from conditioned media by Protein A
# T3 sequence (P56817 22-460): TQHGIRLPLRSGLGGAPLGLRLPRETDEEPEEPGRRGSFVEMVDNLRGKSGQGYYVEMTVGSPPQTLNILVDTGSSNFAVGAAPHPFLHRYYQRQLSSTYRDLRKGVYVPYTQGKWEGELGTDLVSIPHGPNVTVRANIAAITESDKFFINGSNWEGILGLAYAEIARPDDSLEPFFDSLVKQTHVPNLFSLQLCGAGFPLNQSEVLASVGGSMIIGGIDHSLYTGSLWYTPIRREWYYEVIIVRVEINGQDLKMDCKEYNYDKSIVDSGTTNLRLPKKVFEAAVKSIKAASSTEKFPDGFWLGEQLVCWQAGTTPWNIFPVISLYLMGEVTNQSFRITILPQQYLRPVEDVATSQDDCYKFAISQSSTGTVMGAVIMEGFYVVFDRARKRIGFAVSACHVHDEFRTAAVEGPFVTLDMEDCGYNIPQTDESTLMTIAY
# Description: as §1
# Serial dilutions of test compounds are prepared as described above. Compounds are further diluted 20× in KH2PO4 buffer. Ten μL of each dilution is added to each well on row A to H of a corresponding low protein binding black plate containing the reaction mixture (25 μL of 50 mM KH2PO4, pH 4.6, 1 mM TRITON® X-100, 1 mg/mL Bovine Serum Albumin, and 15 μM of FRET substrate) (See Yang, et. al., J. Neurochemistry, 91(6) 1249-59 (2004)). The content is mixed well on a plate shaker for 10 minutes. Fifteen μL of two hundred pM human BACE(1-460):Fc (See Vasser, et al., Science, 286, 735-741 (1999)) in the KH2PO4 buffer is added to the plate containing substrate and test compounds to initiate the reaction. The RFU of the mixture at time 0 is recorded at excitation wavelength 355 nm and emission wavelength 460 nm, after brief mixing on a plate shaker. The reaction plate is covered with aluminum foil and kept in a dark humidified oven at room temperature for 16 to 24 h. The RFU at the end of incubation is recorded with the same excitation and emission setting. The difference of the RFU at time 0 and the end of incubation is representative of the activity of BACE under the compound treatment. RFU differences are plotted versus inhibitor concentration and a curve is fitted with a four-parameter logistic equation to obtain the EC50 and IC50 values. (See Sinha, et al., Nature, 402, 537-540 (2000)).
# Human (accession number: AF190725) is cloned from total brain cDNA by […]. The nucleotide sequences corresponding to amino acid sequences #1 to 460 are inserted into the cDNA encoding human IgG1 (Fc) polypeptide (Vassar et al. 1999). This fusion protein of BACE(1-460) and human Fc, named huBACE:Fc, is constructed into the pJB02 vector. Human BACE(1-460):Fc (huBACE:Fc) is transiently expressed in HEK293 cells. 250 μg cDNA of each construct is mixed with Fugene 6 and added to 1 liter HEK293 cells. Four days after the transfection, conditioned media are harvested for purification.
# huBACE:Fc is purified by Protein A chromatography. The enzyme is stored at −80° C. in small aliquots.
# [4] = molecular target: T4, beta-secretase (BACE) in primary cortical neurons from PDAPP transgenic embryonic mice (Mus musculus, UniProt P56818); assay: PDAPP primary neuronal assay (Abeta ELISA); format: cell-based
# T4 construct: endogenous in cells; host or cells: primary cortical neurons from Embryonic Day 16 PDAPP transgenic mouse embryos
# T4 sequence (P56818 46-501): as the sequence (P56818 46-501) above
# Description: as §1
# as §2, with “A confirmatory whole cell assay is also run in primary neuronal cultures generated from PDAPP transgenic embryonic mice. Primary cortical neurons are prepared from Embryonic Day 16 PDAPP embryos and cultured in 96 well plates (15×10^4 cells/well in DMEM/F12 (1:1) plus 10% FBS). After 4-6 days in vitro, culture media is replaced with serum free DMEM/F12 (1:1)” for “Cells (HEK293/APP751sw at 3.5×10^4 cells/well,”, “B27 supplement and neurons” for “200 μL culture media, DMEM containing 10% FBS)”, “for” for “for 4 to”, “effect. […]” for “effect.”
# [5] = 30 mg/kg sub-cutaneous, young male PDAPP mice, brain, vs vehicle-treated mice
# [6] = Table 27, Abeta 1-40 in conditioned media, read-out: HEK 293 Swe A-beta (1-40) ELISA IC50
# [7] = Table 27, Abeta 1-42 in conditioned media, read-out: HEK 293 Swe A-beta (1-42) ELISA IC50
# [8] = Table 26, purified recombinant huBACE:Fc, FRET substrate, pH 4.6
# [9] = Table 28, Abeta 1-40 in conditioned media, 24 h, read-out: PDAPP Neuron A-beta (1-40) ELISA IC50
# [10] = Table 28, Abeta 1-42 in conditioned media, 24 h, read-out: PDAPP Neuron A-beta (1-42) ELISA IC50
# [11] = 100 mg/kg sub-cutaneous, young male PDAPP mice, vs vehicle-treated mice
# [12] = Table 29, comparator of WO 2007/049532 and enantiomers, read-out: HEK 293 Swe A-beta (1-40) ELISA IC50
# [13] = Table 29, comparator of WO 2007/049532 and enantiomers, read-out: HEK 293 Swe A-beta (1-42) ELISA IC50
# [14] = Table 29, comparator of WO 2007/049532 and enantiomers
# [15] = Table 29, comparator of WO 2007/049532 and enantiomers, read-out: PDAPP Neuron A-beta (1-40) ELISA IC50
# [16] = Table 29, comparator of WO 2007/049532 and enantiomers, read-out: PDAPP Neuron A-beta (1-42) ELISA IC50
Compound,"IC50 [2, 6]","IC50 [2, 7]","IC50 [3, 8]","IC50 [4, 9]","IC50 [4, 10]","IC50 [2, 12]","IC50 [2, 13]","IC50 [3, 14]",other results
"C[C@@]1(c2cc(-c3cncnc3)c(F)cc2F)CCSC(N)=N1 [Example 5, (S)-4-(2,4-Difluoro-5-pyrimidin-5-yl-phenyl)-4-methyl-5,6-dihydro-4H-[1,3]thiazin-2-ylamine]",–,–,–,–,–,–,–,–,"CSF Abeta 1-x level reduction ([1]; 10 mg/kg oral, CSF): ~60%; plasma Abeta 1-x level reduction ([1]; 10 mg/kg oral, plasma): approximately 50%; Abeta 1-x peptide level reduction [1, 5]: approximately 50%; C99 level reduction [1, 5]: ~45%; sAPPb level reduction [1, 5]: approximately 30%"
"C[C@@]1(c2ccc(F)c(-c3cnccn3)c2)CCSC(N)=N1 [Example 12, (S)-4-(4-fluoro-3-(pyrazin-2-yl)phenyl)-4-methyl-5,6-dihydro-4H-1,3-thiazin-2-amine dihydrochloride]",1300 nM,948 nM,833 nM,658 nM,648 nM,–,–,–,–
"COc1cncc(-c2cccc([C@]3(C)CCSC(N)=N3)c2)c1.Cl.Cl [Example 19, (S)-4-[3-(5-Methoxy-pyridin-3-yl)-phenyl]-4-methyl-5,6-dihydro-4H-[1,3]thiazin-2-ylamine dihydrochloride]",335 nM,480 nM,420 nM,288 nM,214 nM,–,–,–,"Abeta 1-x peptide level reduction in brain cortex [1, 11]: approximately 30%; C99 level reduction in brain cortex [1, 11]: approximately 50%; sAPPb level reduction in brain cortex [1, 11]: ~20%"
"CC1(C)C[C@@](C)(c2ccc(F)c(-c3cncnc3)c2)N=C(N)S1 [Example 21, (S)-4-(4-fluoro-3-(pyrimidin-5-yl)phenyl)-4,6,6-trimethyl-5,6-dihydro-4H-1,3-thiazin-2-amine]",863 nM,803 nM,867 nM,355 nM,429 nM,–,–,–,–
CC1(c2ccc(-c3ccccc3)cc2)CCSC(N)=N1 (stereo not drawn) [reference compound],–,–,–,–,–,21400 nM,35300 nM,116000 nM,–
C[C@@]1(c2ccc(-c3ccccc3)cc2)CCSC(N)=N1 [reference compound],–,–,–,–,–,13200 nM,16400 nM,28000 nM,"IC50 [4, 15]: 7820 nM; IC50 [4, 16]: 10400 nM"
C[C@]1(c2ccc(-c3ccccc3)cc2)CCSC(N)=N1 [reference compound],–,–,–,–,–,16500 nM,23700 nM,> 100000 nM,"IC50 [4, 15]: 28100 nM; IC50 [4, 16]: 46800 nM"
